Results on three molecules are retold here after EPA's ToxRefDB 2.

Series [1] relates to rat. The conditions noted are these: Multigenerational reproductive toxicity study, wistar, Oral, Gavage/Intubation, dose end: 2 generation.
In a further series the test system is rabbit. Conditions: Prenatal developmental toxicity study, dutch, Oral, Gavage/Intubation, dose end: 18 GD.
Series [2] concerns rat. The conditions noted are these: Prenatal developmental toxicity study, sprague dawley, Oral, Gavage/Intubation, dose end: 15 GD.
Series [3] concerns rat. Conditions: Multigenerational reproductive toxicity study, sprague dawley, Oral, Feed, dose end: 2 generation.
The subject of series [4] is rat. The conditions noted are these: Multigenerational reproductive toxicity study, sprague dawley, Oral, Feed, dose end: 2 generation. The source holds these as a separate data set.
The test system of series [5] is rat. The conditions noted are these: Prenatal developmental toxicity study, sprague dawley, Oral, Gavage/Intubation, dose end: 15 GD. The source holds these as a separate data set.
[6] abbreviates: group: offspring, developmental / offspring survival late / lactation index / lactation index.
[7] abbreviates: group: parental, systemic / in life observation / body weight / body weight + systemic / in life observation / clinical signs / poor general condition.
The mark [8] stands for this setting: group: developmental, systemic / in life observation / body weight / fetal weight.
Where [9] appears, read: group: maternal, reproductive / reproductive performance / resorptions / resorptions + systemic / in life observation / body weight / body weight gain + ….
Setting [10] is: group: developmental, developmental / developmental malformation / bone / [other] + developmental / developmental malformation / bone / incomplete ossification + ….
Setting [11] is: group: maternal, systemic / in life observation / body weight / body weight gain.
The mark [12] stands for this setting: group: offspring, systemic / organ weight / kidney / absolute + systemic / organ weight / liver / absolute + systemic / pathology gross / kidney / enlarged + ….
The mark [13] stands for this setting: group: parental, systemic / organ weight / liver / absolute + systemic / organ weight / kidney / absolute.
[14] abbreviates: group: reproductive, reproductive / offspring survival early / birth index / live birth index.
The mark [15] stands for this setting: group: offspring, developmental / offspring survival late / viability index / viability index + developmental / developmental landmark / anogenital distance (….
[16] abbreviates: group: offspring, systemic / organ weight / kidney / absolute + systemic / organ weight / liver / absolute + systemic / pathology microscopic / liver / ….
Setting [17] is: group: parental, systemic / in life observation / body weight / body weight + systemic / organ weight / kidney / absolute + systemic / organ weight / liver….
[18] abbreviates: group: parental, systemic / organ weight / liver / absolute + systemic / pathology microscopic / liver / hypertrophy + systemic / organ weight / kidney / ….
Where [19] appears, read: group: developmental, developmental / developmental malformation / bone / incomplete ossification + developmental / developmental malformation / bone / ….
[20] abbreviates: group: maternal, systemic / in life observation / body weight / body weight gain + systemic / in life observation / food consumption / food consumption.

The structures appear in SMILES notation. Where only a bound is given, the exact number is not on record here.

`N#Cc1ccc(CC(=NNC(=O)Nc2ccc(OC(F)(F)F)cc2)c2cccc(C(F)(F)F)c2)cc1` (mixture of isomers) [Metaflumizone]: in the series with rat [1] (setting [6]), the LEL stood at 50 mg/kg/day, the LOAEL was 50 mg/kg/day, the NEL is 20 mg/kg/day and the no-observed-adverse-effect level (NOAEL) came out at 20 mg/kg/day. Also, in the series on rat [1] (setting [7]), the LEL came to 50 mg/kg/day, the lowest-observed-adverse-effect level (LOAEL) was found to be 50 mg/kg/day, the NEL was determined as 20 mg/kg/day and the NOAEL was found to be 20 mg/kg/day.
On to `Cc1cccc(N)c1N` [2,3-Diaminotoluene], for which the LEL with rabbit (setting [8]) turned out to be 100 mg/kg/day; with rabbit (setting [9]), 100 mg/kg/day; with rat [2] (group: developmental, developmental / developmental malformation / bone / [other] + developmental / developmental malformation / bone / incomplete ossification), 100 mg/kg/day; in the series with rat [2] (setting [11]) it was 300 mg/kg/day. Besides, the LOAEL in the series with rabbit (setting [8]) is above 100 mg/kg/day; in the series on rabbit (setting [9]), above 100 mg/kg/day; in the series on rat [2] (setting [10]), above 300 mg/kg/day; in the series with rat [2] (setting [11]), above 300 mg/kg/day. Moreover, the NEL is 30 mg/kg/day with rabbit (setting [8]); 30 mg/kg/day in the series with rabbit (group: maternal, reproductive / reproductive performance / resorptions / resorptions + systemic / in life observation / body weight / body weight gain); 30 mg/kg/day in the series with rat [2] (setting [10]); 100 mg/kg/day in the series on rat [2] (setting [11]). For the same molecule, the NOAEL in the series with rabbit (setting [8]) is at least 100 mg/kg/day; with rabbit (setting [9]) it was at least 100 mg/kg/day; in the series with rat [2] (setting [10]), at least 300 mg/kg/day; in the series with rat [2] (setting [11]), at least 300 mg/kg/day.
Turning to `CC(C)CCCCCCCOC(=O)c1ccccc1C(=O)OCCCCCCCC(C)C` [Diisodecyl phthalate], the LEL in the series on rat [3] (setting [12]) is 100 mg/kg/day; in the series with rat [3] (setting [13]), 200 mg/kg/day; with rat [3] (setting [14]), 100 mg/kg/day; in the series with rat [4] (setting [16]) it was 100 mg/kg/day; in the series with rat [4] (setting [18]), 100 mg/kg/day; in the series with rat [4] (setting [14]), 100 mg/kg/day. For the same molecule, the LEL in the series with rat [5] (setting [19]) and in the series with rat [5] (setting [20]) was 1000 mg/kg/day in each case. Moreover, the LOAEL in the series with rat [3] (setting [12]) was above 200 mg/kg/day; in the series on rat [3] (setting [13]) it was above 200 mg/kg/day; with rat [3] (setting [14]), above 200 mg/kg/day; in the series with rat [4] (setting [15]), above 400 mg/kg/day; in the series with rat [4] (setting [17]), above 400 mg/kg/day; in the series on rat [4] (setting [14]), above 400 mg/kg/day. The LOAEL with rat [5] (setting [19]) and with rat [5] (setting [20]) was above 1000 mg/kg/day throughout. Further, the NEL in the series on rat [3] (setting [12]) was 30 mg/kg/day; in the series on rat [3] (group: parental, systemic / organ weight / liver / absolute), 100 mg/kg/day; with rat [3] (setting [14]), 30 mg/kg/day; in the series on rat [4] (setting [16]), below 100 mg/kg/day; in the series on rat [4] (setting [18]), below 100 mg/kg/day; with rat [4] (setting [14]), below 100 mg/kg/day. The NEL with rat [5] (setting [19]) and with rat [5] (setting [20]) was 500 mg/kg/day each time. The NOAEL in the series on rat [3] (setting [12]) is at least 200 mg/kg/day; in the series with rat [3] (setting [13]), at least 200 mg/kg/day; in the series on rat [3] (setting [14]) it was at least 200 mg/kg/day; with rat [4] (setting [15]), at least 400 mg/kg/day; in the series with rat [4] (setting [17]), at least 400 mg/kg/day; in the series with rat [4] (setting [14]) it was at least 400 mg/kg/day. The NOAEL with rat [5] (setting [19]) and in the series with rat [5] (setting [20]) was at least 1000 mg/kg/day in each case.

The LOAEL is the lowest dose or exposure tested at which an adverse effect was seen. A word on the NOAEL: it is the highest tested level that showed no adverse finding.
